This is an account of results in patent US20240228463A1, “SODIUM CHANNEL INHIBITORS AND METHODS OF DESIGNING SAME” (Genentech, Inc., priority 2021, published 2024).

In this test the target is T1, hNaV1.7 (Homo sapiens, UniProt Q15858).
T1 construct: expressed in transfected cells
The experiment in a line: Patch voltage clamp electrophysiology (EP), Syncropatch 384PE, Nav1.7 in CHO cells.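 Note: Nav1.7 stably expressed from cDNA in CHO cells, holding potential of −50 mV kept for the entire experiment.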 The format is cell-based. The following applies: holding potential −50 mV, inhibition based on 7.5 min compound incubation, read-out: hNaV1.7 EP_SP.

T1 sequence (Q15858 1-1977 isoform Q15858-3): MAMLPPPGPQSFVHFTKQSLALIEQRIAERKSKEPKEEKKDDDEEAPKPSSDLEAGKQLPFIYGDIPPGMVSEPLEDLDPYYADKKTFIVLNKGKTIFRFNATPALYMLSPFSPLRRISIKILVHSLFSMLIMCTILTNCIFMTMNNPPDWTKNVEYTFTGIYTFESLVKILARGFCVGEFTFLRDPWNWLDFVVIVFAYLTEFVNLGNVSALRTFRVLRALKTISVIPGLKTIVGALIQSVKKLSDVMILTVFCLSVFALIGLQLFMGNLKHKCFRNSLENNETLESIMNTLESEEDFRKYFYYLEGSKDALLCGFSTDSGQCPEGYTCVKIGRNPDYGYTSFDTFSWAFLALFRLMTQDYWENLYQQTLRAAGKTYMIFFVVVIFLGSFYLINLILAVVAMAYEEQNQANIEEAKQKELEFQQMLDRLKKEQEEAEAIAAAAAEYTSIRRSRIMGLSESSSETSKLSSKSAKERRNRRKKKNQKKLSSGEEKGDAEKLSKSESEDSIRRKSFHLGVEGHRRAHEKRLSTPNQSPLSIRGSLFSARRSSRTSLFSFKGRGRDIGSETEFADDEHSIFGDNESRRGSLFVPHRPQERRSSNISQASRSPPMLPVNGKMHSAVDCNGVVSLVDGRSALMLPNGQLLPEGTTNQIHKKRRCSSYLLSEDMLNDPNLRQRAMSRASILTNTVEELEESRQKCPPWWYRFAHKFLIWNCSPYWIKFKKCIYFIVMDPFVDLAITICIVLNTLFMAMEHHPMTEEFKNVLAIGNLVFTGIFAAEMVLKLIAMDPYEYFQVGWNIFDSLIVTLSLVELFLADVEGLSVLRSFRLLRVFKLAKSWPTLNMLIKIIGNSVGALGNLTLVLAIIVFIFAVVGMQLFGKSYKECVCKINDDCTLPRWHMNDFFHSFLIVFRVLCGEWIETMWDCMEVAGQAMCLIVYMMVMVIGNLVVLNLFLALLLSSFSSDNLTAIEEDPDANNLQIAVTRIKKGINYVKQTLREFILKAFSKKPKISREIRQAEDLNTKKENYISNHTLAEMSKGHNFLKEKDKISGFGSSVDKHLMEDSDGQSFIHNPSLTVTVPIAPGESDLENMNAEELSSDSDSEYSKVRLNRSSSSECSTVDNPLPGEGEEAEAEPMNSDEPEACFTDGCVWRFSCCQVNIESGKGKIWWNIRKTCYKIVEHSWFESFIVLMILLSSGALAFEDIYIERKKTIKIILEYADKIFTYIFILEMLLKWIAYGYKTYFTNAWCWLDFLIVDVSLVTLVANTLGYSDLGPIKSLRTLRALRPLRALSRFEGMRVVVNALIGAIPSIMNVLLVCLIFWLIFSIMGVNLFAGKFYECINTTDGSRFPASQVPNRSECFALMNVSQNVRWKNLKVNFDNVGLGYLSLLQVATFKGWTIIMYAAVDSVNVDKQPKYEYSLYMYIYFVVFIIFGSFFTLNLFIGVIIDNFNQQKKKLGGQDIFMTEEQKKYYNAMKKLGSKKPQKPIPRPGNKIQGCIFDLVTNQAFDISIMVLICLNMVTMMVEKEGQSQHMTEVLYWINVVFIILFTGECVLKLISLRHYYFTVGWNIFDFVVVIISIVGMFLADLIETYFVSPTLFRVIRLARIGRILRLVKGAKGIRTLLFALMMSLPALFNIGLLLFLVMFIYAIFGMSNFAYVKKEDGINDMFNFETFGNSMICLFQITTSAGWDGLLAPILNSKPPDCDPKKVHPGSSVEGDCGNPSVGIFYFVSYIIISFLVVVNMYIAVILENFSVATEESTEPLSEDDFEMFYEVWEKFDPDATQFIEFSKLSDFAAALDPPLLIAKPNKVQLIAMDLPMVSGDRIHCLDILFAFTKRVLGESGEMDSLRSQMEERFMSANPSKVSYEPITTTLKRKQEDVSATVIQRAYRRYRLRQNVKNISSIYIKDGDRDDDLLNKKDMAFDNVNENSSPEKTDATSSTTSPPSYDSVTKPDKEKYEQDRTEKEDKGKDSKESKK

In the case of `O=C(NS(=O)(=O)c1ccc(OCc2ncccn2)cc1)c1cc(Cl)c(OCC2CCCC2)cc1F` [Example 295, 5-chloro-4-(cyclopentylmethoxy)-2-fluoro-N-((4-(pyrimidin-2-ylmethoxy)phenyl)sulfonyl)benzamide], the IC50 stood at 230 nM.
The same measure for `O=C(NS(=O)(=O)c1ccc(O[C@@H]2CCNC2)cc1)c1cc(Cl)c(OCC2CCCC2)cc1F` (single isomer, unassigned) [Example 69]: 130 nM.
The same measure for `COc1cc(COc2ccc(S(=O)(=O)NC(=O)c3cc(Cl)c(OCC4CCCC4)cc3F)cc2)cc(OC)c1` [Example 306, 5-chloro-4-(cyclopentylmethoxy)-N-((4-((3,5-dimethoxy-benzyl)oxy)phenyl)sulfonyl)-2-fluorobenzamide]: 170 nM.
The same measure for `COc1cc(C(=O)NS(=O)(=O)N2CCC(OC3CN(C)C3)CC2)c(F)cc1OCC1CCCC1` [Example 6, 4-(cyclopentylmethoxy)-2-fluoro-5-methoxy-N-((4-((1-methylazetidin-3-yl)oxy)piperidin-1-yl)sulfonyl) benzamide]: 320 nM; for `CN(C)C1CCN(S(=O)(=O)NC(=O)c2cc(Cl)c(OCC3CCCC3)cc2F)CC1` [Example 329, 5-chloro-4-(cyclopentylmethoxy)-N-((4-(dimethylamino)piperidin-1-yl)sulfonyl)-2-fluorobenzamide]: 1000 nM; for `COc1ccccc1S(=O)(=O)NC(=O)c1cc(Cl)c(OCC2CCCC2)cc1F` [Example 246, 5-chloro-4-(cyclopentylmethoxy)-2-fluoro-N-((2-methoxyphenyl)sulfonyl)benzamide]: 230 nM.
With `C[C@H]1Cc2cc(S(=O)(=O)NC(=O)c3cc(Cl)c(OCC4CCCC4)cc3F)ccc2O1` [Example 270, (S)-5-chloro-4-(cyclopentylmethoxy)-2-fluoro-N-((2-methyl-2,3-dihydrobenzofuran-5-yl)sulfonyl)benzamide], the IC50 stood at 380 nM.
The same measure for `COC1CCN(S(=O)(=O)NC(=O)c2cc(Cl)c(OCC3CCCC3)cc2F)CC1` [Example 20, 5-chloro-4-(cyclopentylmethoxy)-2-fluoro-N-((4-methoxypiperidin-1-yl)sulfonyl)benzamide]: 49 nM; for `CN(C)C1CCCN(c2ccc(S(=O)(=O)NC(=O)c3cc(Cl)c(OCC4CCCC4)cc3F)cc2)C1` (single isomer, unassigned) [Example 209]: 110 nM; for `CN(C)C[C@@H]1CN(S(=O)(=O)NC(=O)c2cc(Cl)c(OCC3CCCC3)cc2F)CCO1` (single isomer, unassigned) [Example 28]: 230 nM.
The same measure for `C[C@@H]1CCCN1S(=O)(=O)NC(=O)c1cc(Cl)c(OCC2CCCC2)cc1F` (single isomer, unassigned) [Example 222]: 33 nM; for `O=C(NS(=O)(=O)N1CC2(CCO2)C1)c1cc(Cl)c(OCC2CCCC2)cc1F` [Example 228, N-((1-oxa-6-azaspiro[3.3]heptan-6-yl)sulfonyl)-5-chloro-4-(cyclopentylmethoxy)-2-fluorobenzamide]: 210 nM; for `O=C(NS(=O)(=O)N1CCN2CCNCC2C1)c1cc(Cl)c(OCC2CCCC2)cc1F` (stereo not shown) [Example 23, 5-chloro-4-(cyclopentylmethoxy)-2-fluoro-N-((octahydro-2H-pyrazino[1,2-a]pyrazin-2-yl)sulfonyl)benzamide]: 110 nM.
In the case of `O=C(NS(=O)(=O)c1ccc(OC2CC2)cc1)c1cc(Cl)c(OCC2CCCC2)cc1F` [Example 276, 5-chloro-4-(cyclopentylmethoxy)-N-((4-cyclopropoxyphenyl)sulfonyl)-2-fluorobenzamide], the IC50 amounted to 130 nM.
Regarding `O=C(NS(=O)(=O)C1CC12CCC2)c1cc(Cl)c(OCC2CCCC2)cc1F` (stereo not shown) [Example 256, 5-chloro-4-(cyclopentylmethoxy)-2-fluoro-N-(spiro[2.3]hexan-1-ylsulfonyl)benzamide], the IC50 is 13 nM.
The same measure for `O=C(NS(=O)(=O)N1CCC(OC2CNC2)CC1)c1cc(Cl)c(OCC2CCCC2)cc1F` [Example 46, N-((4-(azetidin-3-yloxy)piperidin-1-yl)sulfonyl)-5-chloro-4-(cyclopentyl-methoxy)-2-fluorobenzamide]: 250 nM; for `N#Cc1ccc(S(=O)(=O)NC(=O)c2cc(Cl)c(OCC3CCCC3)cc2F)c(F)c1` [Example 272, 5-chloro-N-((4-cyano-2-fluorophenyl)sulfonyl)-4-(cyclopentylmethoxy)-2-fluorobenzamide]: 210 nM.
On to `Cn1ncnc1COc1ccc(S(=O)(=O)NC(=O)c2cc(Cl)c(OCC3CCCC3)cc2F)cc1` [Example 286, 5-chloro-4-(cyclopentylmethoxy)-2-fluoro-N-((4-((1-methyl-1H-1,2,4-triazol-5-yl)methoxy)phenyl)sulfonyl)benzamide], for which the IC50 was found to be 160 nM.
The same measure for `CC(C)S(=O)(=O)NC(=O)c1cc(Cl)c(OCC2CCCC2)cc1F` [Example 247, 5-chloro-4-(cyclopentylmethoxy)-2-fluoro-N-(isopropylsulfonyl)benzamide]: 52 nM; for `O=C(NS(=O)(=O)N1CCCCCC1)c1cc(Cl)c(OCC2CCCC2)cc1F` [Example 227, N-(azepan-1-ylsulfonyl)-5-chloro-4-(cyclopentylmethoxy)-2-fluorobenzamide]: 20 nM.
Consider `Cc1ccccc1S(=O)(=O)NC(=O)c1cc(Cl)c(OCC2CCCC2)cc1F` [Example 242, 5-chloro-4-(cyclopentylmethoxy)-2-fluoro-N-(o-tolylsulfonyl)benzamide], for which the IC50 amounted to 110 nM.
As for `O=C(NS(=O)(=O)N1CCC(OC2CNC2)CC1)c1cc(C2CC2)c(OCC2CCCC2)cc1F` [Example 47, N-((4-(azetidin-3-yloxy)piperidin-1-yl)sulfonyl)-4-(cyclopentylmethoxy)-5-cyclopropyl-2-fluorobenzamide], the figure is 36 nM.
On to `O=C(NS(=O)(=O)N1C[C@@H]2CC[C@@H](C2)C1)c1cc(Cl)c(OCC2CCCC2)cc1F` [Example 230, N-(((1R,5S)-3-azabicyclo[3.2.1]octan-3-yl)sulfonyl)-5-chloro-4-(cyclopentylmethoxy)-2-fluorobenzamide], for which the IC50 was found to be 63 nM.
In the case of `O=C(NS(=O)(=O)c1ccc(OCc2cccc(F)c2)cc1)c1cc(Cl)c(OCC2CCCC2)cc1F` [Example 298, 5-chloro-4-(cyclopentylmethoxy)-2-fluoro-N-((4-((3-fluorobenzyl)oxy)-phenyl)sulfonyl)benzamide], the IC50 was 220 nM.
As for `O=C(NS(=O)(=O)N1CC(O[C@@H]2CCCNC2)C1)c1cc(Cl)c(OCC2CCCC2)cc1F` (single isomer, unassigned) [Example 48], the figure is 860 nM; as for `CCc1cccc(S(=O)(=O)NC(=O)c2cc(Cl)c(OCC3CCCC3)cc2F)c1` [Example 244, 5-chloro-4-(cyclopentylmethoxy)-N-((3-ethylphenyl)sulfonyl)-2-fluorobenzamide], 770 nM.
On to `CC(C)c1cc(C(=O)NS(=O)(=O)N2CCC(OC3CN(C)C3)CC2)c(F)cc1OCC1CCCC1` [Example 5, 4-(cyclopentylmethoxy)-2-fluoro-5-isopropyl-N-((4-((1-methylazetidin-3-yl)oxy)piperidin-1-yl)sulfonyl)benzamide], for which the IC50 came to 39 nM.
Take `O=C(NS(=O)(=O)c1ccc(OCc2cncnc2)cc1)c1cc(Cl)c(OCC2CCCC2)cc1F` [Example 304, 5-chloro-4-(cyclopentylmethoxy)-2-fluoro-N-((4-(pyrimidin-5-ylmethoxy)phenyl)sulfonyl)benzamide]: the IC50 came out at 570 nM.
Consider `O=C(NS(=O)(=O)N1CCC(OC2CCNCC2)CC1)c1cc(Cl)c(OCC2CCCC2)cc1F` [Example 53, 5-chloro-4-(cyclopentylmethoxy)-2-fluoro-N-((4-(piperidin-4-yloxy)piperidin-1-yl)sulfonyl) benzamide], for which the IC50 came to 250 nM.
As for `O=C(NS(=O)(=O)c1ccc(Oc2ccc(Cl)cc2)cc1)c1cc(Cl)c(OCC2CCCC2)cc1F` [Example 288, 5-chloro-N-((4-(4-chlorophenoxy)phenyl)sulfonyl)-4-(cyclopentylmethoxy)-2-fluorobenzamide], the figure is 490 nM; as for `O=C(NS(=O)(=O)N1CCC(CC2CNC2)CC1)c1cc(Cl)c(OCC2CCCC2)cc1F` [Example 40, N-((4-(azetidin-3-ylmethyl)piperidin-1-yl)sulfonyl)-5-chloro-4-(cyclopentylmethoxy)-2-fluorobenzamide 2,2,2-trifluoroacetate], 59 nM.
Turning to `C[C@@H]1CCCCN1S(=O)(=O)NC(=O)c1cc(Cl)c(OCC2CCCC2)cc1F` (single isomer, unassigned) [Example 225], the IC50 amounted to 10 nM.
As for `O=C(NS(=O)(=O)Cc1ccc2ncccc2c1)c1cc(Cl)c(OCC2CCCC2)cc1F` [Example 273, 5-chloro-4-(cyclopentylmethoxy)-2-fluoro-N-((quinolin-6-ylmethyl)sulfonyl)benzamide], the IC50 came to 230 nM.
`O=C(NS(=O)(=O)c1ccc(OCc2ccc(F)cc2)cc1)c1cc(Cl)c(OCC2CCCC2)cc1F` [Example 319, 5-chloro-4-(cyclopentylmethoxy)-2-fluoro-N-((4-((4-fluorobenzyl)oxy)phenyl)sulfonyl)benzamide]: the IC50 was found to be 110 nM.
The same measure for `CN(C)[C@H]1CCCC[C@@H]1Oc1ccc(S(=O)(=O)Nc2nc3ccc(OCC4CCCC4)cc3s2)c(F)c1` [Example 97, N-(6-(cyclopentylmethoxy)benzo[d]thiazol-2-yl)-4-(((1S,2S)-2-(dimethyl-amino)cyclohexyl)oxy)-2-fluorobenzenesulfonamide]: 20 nM.
The same measure for `O=C(NS(=O)(=O)c1ccc(OCc2cccnc2)cc1)c1cc(Cl)c(OCC2CCCC2)cc1F` [Example 310, 5-chloro-4-(cyclopentylmethoxy)-2-fluoro-N-((4-(pyridin-3-ylmethoxy)phenyl)sulfonyl)benzamide]: 18 nM; for `O=C(NS(=O)(=O)c1ccc2c(c1)OCCCO2)c1cc(Cl)c(OCC2CCCC2)cc1F` [Example 289, 5-chloro-4-(cyclopentylmethoxy)-N-((3,4-dihydro-2H-benzo[b][1,4]dioxepin-7-yl)sulfonyl)-2-fluorobenzamide]: 710 nM.
